This is an account of results in ChEMBL document CHEMBL1201862, “PubChem BioAssay data set” (2004).

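Method: 48-hour compound exposure of cells in 96-well plates, five concentrations, linear interpolation of endpoints. The concentration for 50% growth inhibition is given as GI50.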 Activity calls are given as the source filed them. Cut-off read from the data, not from the text of the source: active = GI50 up to about 1.1 µM and inactive = higher. A value given as a limit tells only on which side of the number the result lay.

Some test systems named below: SK-MEL-2; Hs-578T; HCT-116; UACC-257; NCI-H226; SW-620; Malme-3M; SR; MCF7; OVCAR-4; T47D; SNB-75; U-251; OVCAR-3; HCT-15; MDA-N; LOX IMVI; PC-3; ACHN.
Holding throughout (experiment): growth of human tumour cells (NCI), 48 h

Regarding `CN(C)CCN(c1ccccn1)c1ccccn1`, the GI50 with SK-MEL-2, in the experiment with Hs-578T, with HCT-116, in the experiment on UACC-257, in the experiment with NCI-H226 and in the experiment on SW-620 was > 100 µM (inactive) throughout. For the same compound, the GI50 in the experiment with Malme-3M, with SR, in the experiment with MCF7, in the experiment with OVCAR-4, in the experiment on T47D and in the experiment on SNB-75 was > 100 µM (inactive) each time. Also, the GI50 with U-251 is > 100 µM (inactive); in the experiment on OVCAR-3 it was > 100 µM (inactive); in the experiment on HCT-15, greater than 100 µM; in the experiment on MDA-N it was > 100 µM (inactive); with LOX IMVI, > 100 µM (inactive); in the experiment with PC-3, > 100 µM (inactive). In the experiment with ACHN, the GI50 is > 100 µM (inactive).

With `C=CCN1C[C@H](C)N([C@H](c2ccc(C(=O)NC(CC)CC)cc2)c2cccc(OC)c2)C[C@H]1C`, the GI50 in the experiment on SK-MEL-2 is 20.9 µM (inactive); in the experiment on Hs-578T, > 100 µM (inactive); with HCT-116, 21.6 µM (inactive); with UACC-257, 26.2 µM (inactive); with NCI-H226, 70.5 µM (inactive); with SW-620, 29.9 µM (inactive). Besides, the GI50 with Malme-3M was 20.4 µM (inactive); with SR, 23.7 µM (inactive); with MCF7, 35.2 µM (inactive); with OVCAR-4 it was 46 µM (inactive); in the experiment on T47D, 29 µM (inactive); with SNB-75, > 100 µM (inactive). Further, the GI50 in the experiment with U-251 was 34 µM (inactive); in the experiment with OVCAR-3, 52.4 µM (inactive); with HCT-15, 29.4 µM; in the experiment on MDA-N, 37.3 µM (inactive); with LOX IMVI, 4.38 µM (inactive); in the experiment with PC-3 it was 31.1 µM (inactive). Besides, in the experiment on ACHN, the GI50 was 33.9 µM (inactive).

Turning to `O=C(Nc1c(Cl)cc([N+](=O)[O-])cc1Cl)C(=O)C1C(=O)NC(=S)NC1=O`, the GI50 with SK-MEL-2, in the experiment with Hs-578T, with HCT-116, in the experiment on UACC-257, in the experiment with NCI-H226 and with SW-620 was > 100 µM (inactive) each time. Besides, the GI50 was > 100 µM (inactive) in the experiment with Malme-3M; > 10 µM (inactive) in the experiment with SR; > 100 µM (inactive) in the experiment on MCF7; > 100 µM (inactive) with OVCAR-4; > 100 µM (inactive) in the experiment with T47D; > 100 µM (inactive) with SNB-75. Also, the GI50 in the experiment with U-251 was > 100 µM (inactive); in the experiment on OVCAR-3 it was > 100 µM (inactive); with HCT-15, greater than 100 µM; with MDA-N it was > 100 µM (inactive); in the experiment with LOX IMVI, > 100 µM (inactive); with PC-3 it was > 100 µM (inactive). In addition, the GI50 with ACHN is > 100 µM (inactive).

`CN(C)CCCN1c2ccccc2CCc2cccc([N+](=O)[O-])c21`: the GI50 in the experiment with SK-MEL-2 is 26.5 µM (inactive); in the experiment on Hs-578T, 23.3 µM (inactive); in the experiment on HCT-116, 15.6 µM (inactive); with UACC-257, 20.4 µM (inactive); with NCI-H226 it was 22.6 µM (inactive); in the experiment with SW-620 it was 17.7 µM (inactive). Also, the GI50 with Malme-3M was 16.9 µM (inactive); in the experiment on SR, 13.6 µM (inactive); in the experiment with MCF7 it was 16.8 µM (inactive); in the experiment with OVCAR-4 it was 18 µM (inactive); in the experiment with T47D, 13.7 µM (inactive); with SNB-75, 6.34 µM (inactive). For the same compound, the GI50 in the experiment with U-251 is 18.2 µM (inactive); in the experiment on OVCAR-3, 16.3 µM (inactive); with HCT-15 it was 15.6 µM; in the experiment with MDA-N it was 16.2 µM (inactive); in the experiment with LOX IMVI, 16.6 µM (inactive); with PC-3, 19.8 µM (inactive). In addition, the GI50 in the experiment with ACHN was 22.5 µM (inactive).

`c1ccc(CNCCCCNCCCNCc2ccccc2)cc1`: the GI50 is 31.6 µM (inactive) with SK-MEL-2; 14 µM (inactive) in the experiment with Hs-578T; 17.3 µM (inactive) with HCT-116; 17.3 µM (inactive) in the experiment on UACC-257; 20.2 µM (inactive) with NCI-H226; 15.8 µM (inactive) in the experiment on SW-620. Moreover, the GI50 was 15.5 µM (inactive) in the experiment on Malme-3M; 17.6 µM (inactive) in the experiment with SR; > 100 µM (inactive) in the experiment on MCF7; 17.8 µM (inactive) in the experiment with OVCAR-4; > 100 µM (inactive) with T47D; 19.4 µM (inactive) in the experiment with SNB-75. The GI50 in the experiment on U-251 was 17.8 µM (inactive); with OVCAR-3, 20 µM (inactive); with HCT-15, 19 µM; in the experiment with MDA-N it was 12.9 µM (inactive); in the experiment with LOX IMVI, 17.7 µM (inactive); with PC-3, 13.6 µM (inactive). In addition, the GI50 in the experiment on ACHN was 15.7 µM (inactive).

Consider `CN(C)C(=O)c1nnsc1NN=O`, for which the GI50 in the experiment with SK-MEL-2, with Hs-578T, in the experiment on HCT-116, in the experiment on UACC-257, with NCI-H226 and in the experiment with SW-620 was > 100 µM (inactive) in each case. The GI50 in the experiment on Malme-3M, in the experiment with SR, in the experiment with MCF7, in the experiment with OVCAR-4, in the experiment on T47D and with SNB-75 was > 100 µM (inactive) throughout. For the same compound, the GI50 is > 100 µM (inactive) in the experiment on U-251; 87.7 µM (inactive) in the experiment with OVCAR-3; greater than 100 µM in the experiment with HCT-15; > 100 µM (inactive) with MDA-N; > 100 µM (inactive) with LOX IMVI; > 100 µM (inactive) in the experiment with PC-3. Moreover, the GI50 in the experiment on ACHN is > 100 µM (inactive).

In the case of `COc1ccc2c(c1)CCc1c(-c3noc4c3CCc3cc(OC)ccc3-4)noc1-2`, the GI50 in the experiment with SK-MEL-2, in the experiment with Hs-578T, in the experiment on HCT-116, in the experiment with UACC-257, with NCI-H226 and in the experiment on SW-620 was > 100 µM (inactive) throughout. The GI50 in the experiment on Malme-3M, in the experiment with SR, in the experiment with MCF7, with OVCAR-4, with T47D and with SNB-75 was > 100 µM (inactive) in each case. The GI50 is > 100 µM (inactive) in the experiment with U-251; > 100 µM (inactive) in the experiment with OVCAR-3; greater than 100 µM with HCT-15; > 100 µM (inactive) in the experiment on MDA-N; > 100 µM (inactive) with LOX IMVI; > 100 µM (inactive) with PC-3. The GI50 in the experiment on ACHN was > 100 µM (inactive).

In the case of `C/C(=N\Nc1nc2cc(C(F)(F)F)ccc2s1)c1ccccn1`, the GI50 in the experiment with SK-MEL-2 was 0.594 µM (active); in the experiment with Hs-578T, 1.91 µM (inactive); in the experiment on HCT-116, 0.0783 µM (active); with UACC-257, 0.452 µM (active); with NCI-H226 it was 0.124 µM (active); with SW-620, 0.102 µM (active). Besides, the GI50 in the experiment on Malme-3M was 0.0622 µM (active); in the experiment with SR, 0.0624 µM (active); in the experiment with MCF7 it was 0.0753 µM (active); with OVCAR-4, 0.321 µM (active); in the experiment on T47D, 0.239 µM (active); with SNB-75, 1.98 µM (inactive). Moreover, the GI50 with U-251 was 0.448 µM (active); in the experiment with OVCAR-3 it was 0.826 µM (active); with HCT-15, 0.0993 µM; in the experiment on MDA-N, 1.06 µM (active); in the experiment on LOX IMVI, 0.287 µM (active); with PC-3, 1.67 µM (inactive). Moreover, the GI50 in the experiment with ACHN is 0.113 µM (active).

Consider `O=C(CSc1nc(O)nc2[nH]cnc12)Nc1ccccc1`, for which the GI50 with SK-MEL-2 is > 100 µM (inactive); with Hs-578T it was 75 µM (inactive); with HCT-116, 91.2 µM (inactive); in the experiment with UACC-257, 86.9 µM (inactive); with NCI-H226, 37.1 µM (inactive); in the experiment on SW-620, 66.4 µM (inactive). Moreover, the GI50 is > 100 µM (inactive) in the experiment with Malme-3M; 51.6 µM (inactive) in the experiment on SR; 44.6 µM (inactive) with MCF7; > 100 µM (inactive) with OVCAR-4; > 100 µM (inactive) in the experiment with T47D; > 100 µM (inactive) in the experiment on SNB-75. Also, the GI50 was 33.1 µM (inactive) with U-251; > 100 µM (inactive) in the experiment with OVCAR-3; 61.9 µM in the experiment on HCT-15; 57.5 µM (inactive) in the experiment with MDA-N; 54.5 µM (inactive) with LOX IMVI; 36.6 µM (inactive) with PC-3. In addition, in the experiment on ACHN, the GI50 was > 100 µM (inactive).

On to `[N-]=[N+]=Nc1ccc(CNc2cc(=O)[nH]c(=O)[nH]2)cc1`, for which the GI50 was > 100 µM (inactive) in the experiment on SK-MEL-2; > 100 µM (inactive) in the experiment with Hs-578T; > 100 µM (inactive) in the experiment on HCT-116; > 100 µM (inactive) with UACC-257; > 100 µM (inactive) with NCI-H226; > 64.1 µM (inactive) in the experiment with SW-620. Besides, the GI50 with Malme-3M, with SR, in the experiment with MCF7, in the experiment with OVCAR-4, in the experiment on T47D and in the experiment with SNB-75 was > 100 µM (inactive) throughout. Besides, the GI50 in the experiment on U-251 is > 100 µM (inactive); with OVCAR-3 it was > 100 µM (inactive); in the experiment on HCT-15, greater than 100 µM; in the experiment with MDA-N it was > 100 µM (inactive); in the experiment with LOX IMVI it was > 100 µM (inactive); in the experiment on PC-3, > 100 µM (inactive). In addition, the GI50 with ACHN is > 100 µM (inactive).

Take `CC(=O)N1C(Nc2ccccn2)CCN1c1ccccc1` (stereo not drawn): the GI50 with SK-MEL-2, in the experiment with Hs-578T, with HCT-116, in the experiment with UACC-257, in the experiment with NCI-H226 and with SW-620 was > 10 µM (inactive) throughout. In addition, the GI50 with Malme-3M, with SR, in the experiment with MCF7, in the experiment on OVCAR-4, with T47D and in the experiment on SNB-75 was > 10 µM (inactive) each time. In addition, the GI50 is > 10 µM (inactive) in the experiment on OVCAR-3; greater than 10 µM in the experiment on HCT-15; > 10 µM (inactive) with MDA-N; > 10 µM (inactive) in the experiment on LOX IMVI; > 10 µM (inactive) with PC-3; 7.36 µM (inactive) in the experiment with ACHN.
